Measured values from the NIST ThermoML archive (doi:10.1021/je500083n).

Experiment: xn = mol fraction of the nth substance listed
Conditions: Gas, Vibrating wire viscometry

C [methane] + CCC
x2 = 0.0548
Conditions | viscosity [mPa·s]
280.16 K, 610 kPa | 0.01039
280.16 K, 1550 kPa | 0.01051
280.17 K, 3150 kPa | 0.01083
280.17 K, 4970 kPa | 0.01143
280.18 K, 5880 kPa | 0.01179
280.2 K, 6560 kPa | 0.01211
280.21 K, 6970 kPa | 0.0123
298.18 K, 870 kPa | 0.01083
298.18 K, 1450 kPa | 0.01096
298.19 K, 4110 kPa | 0.01163
298.2 K, 2650 kPa | 0.01124
298.2 K, 5430 kPa | 0.01211
298.22 K, 6340 kPa | 0.01244
298.22 K, 6700 kPa | 0.01259

C [methane] + O=C=O
x1 = 0.57
Conditions | viscosity [mPa·s]
280.17 K, 6410 kPa | 0.01457
280.2 K, 5490 kPa | 0.01408
280.22 K, 4480 kPa | 0.01364
280.24 K, 3500 kPa | 0.01338
280.31 K, 2510 kPa | 0.0131
280.32 K, 1510 kPa | 0.01303
303.18 K, 5440 kPa | 0.01477
303.18 K, 6330 kPa | 0.01523
303.19 K, 3500 kPa | 0.01411
303.19 K, 4500 kPa | 0.0144
303.2 K, 1500 kPa | 0.01381
303.2 K, 2500 kPa | 0.01387
328.13 K, 6450 kPa | 0.01573
328.14 K, 3490 kPa | 0.01477
328.14 K, 4490 kPa | 0.01504
328.14 K, 5500 kPa | 0.01538
328.15 K, 2500 kPa | 0.01453
328.16 K, 1510 kPa | 0.01447
